ChEMBL document CHEMBL1151354, “Isofraxidin, a cytotoxic coumarin from Micrandra elata (Euphorbiaceae)” (1980)
In brackets after ≈: the same amount, converted by molar mass.

Tests used:
[1] = test system: P388; assay: Cytotoxicity against mouse P388 cells; assay type: functional; conditions: read-out: ED50 (the source's name)
[2] = test system: KB; assay: Cytotoxicity against human KB cells; assay type: functional; conditions: read-out: ED50 (the source's name)

## COc1cc2ccc(=O)oc2c(OC)c1O
[1]
  EC50: 1.7 µg/mL (≈ 7.65 µM)
[2]
  EC50: > 100 µg/mL
